≈ marks a conversion by molar mass, not a printed value. Calls of active or inactive are those of the source. No cut-off for these calls is given here.
Legend:
HepG2 [1] = assay: Cell cycle arrest in human HepG2 cells assessed as accumulation at S phase at 8 ug/mL after 48 hrs by propidium iodide staining-based flow cytometric analysis (reference value: 31%); assay type: functional
HepG2 [2] = assay: Induction of apoptosis in human HepG2 cells assessed as apoptotic body formation at 8 ug/mL after 24 hrs by acridine orange/ethidium bromide staining-based fluorescence microscopic analysis; assay type: functional, cell-based
HepG2 [3] = assay: Cell cycle arrest in human HepG2 cells assessed as accumulation at G1 phase at 1.6 ug/mL after 24 hrs by propidium iodide staining-based flow cytometric analysis (reference value: 45%); assay type: functional
HepG2 [4] = assay: Cell cycle arrest in human HepG2 cells assessed as accumulation at G2/M phase at 3.2 ug/mL after 48 hrs by propidium iodide staining-based flow cytometric analysis (reference value: 5%); assay type: functional
HepG2 [5] = assay: Cell cycle arrest in human HepG2 cells assessed as accumulation at sub-G1 phase at 6.4 ug/mL after 24 hrs by propidium iodide staining-based flow cytometric analysis (reference value: 4%); assay type: functional
HepG2 [6] = assay: Cell cycle arrest in human HepG2 cells assessed as accumulation at G2/M phase at 6.4 ug/mL after 24 hrs by propidium iodide staining-based flow cytometric analysis (reference value: 9%); assay type: functional
HepG2 [7] = assay: Cell cycle arrest in human HepG2 cells assessed as accumulation at G1 phase at 3.2 ug/mL after 24 hrs by propidium iodide staining-based flow cytometric analysis (reference value: 45%); assay type: functional
HepG2 [8] = assay: Cell cycle arrest in human HepG2 cells assessed as accumulation at G1 phase at 8 ug/mL after 48 hrs by propidium iodide staining-based flow cytometric analysis (reference value: 64%); assay type: functional
Mus musculus = assay: Toxicity in Kunming mouse allografted with mouse H22 cells assessed as decrease in body weight at 0.25 to 1 mg/kg/day, ip measured every day for 8 days; assay type: organism-based; design: route intraperitoneal; conditions: in vivo, 192 h
HepG2 [9] = assay: Cell cycle arrest in human HepG2 cells assessed as accumulation at S phase at 4.8 ug/mL after 24 hrs by propidium iodide staining-based flow cytometric analysis (reference value: 46%); assay type: functional
HepG2 [10] = assay: Cell cycle arrest in human HepG2 cells assessed as accumulation at G2/M phase at 4.8 ug/mL after 48 hrs by propidium iodide staining-based flow cytometric analysis (reference value: 5%); assay type: functional
HepG2 [11] = assay: Cell cycle arrest in human HepG2 cells assessed as accumulation at sub-G1 phase at 1.6 ug/mL after 24 hrs by propidium iodide staining-based flow cytometric analysis (reference value: 4%); assay type: functional
HepG2 [12] = assay: Cell cycle arrest in human HepG2 cells assessed as accumulation at sub-G1 phase at 3.2 ug/mL after 24 hrs by propidium iodide staining-based flow cytometric analysis (reference value: 4%); assay type: functional
HepG2 [13] = assay: Cell cycle arrest in human HepG2 cells assessed as accumulation at G2/M phase at 4.8 ug/mL after 24 hrs by propidium iodide staining-based flow cytometric analysis (reference value: 9%); assay type: functional
HepG2 [14] = assay: Cell cycle arrest in human HepG2 cells assessed as accumulation at S phase at 8 ug/mL after 24 hrs by propidium iodide staining-based flow cytometric analysis (reference value: 46%); assay type: functional
HepG2 [15] = assay: Cell cycle arrest in human HepG2 cells assessed as accumulation at sub-G1 phase at 4.8 ug/mL after 48 hrs by propidium iodide staining-based flow cytometric analysis (reference value: 3%); assay type: functional
HepG2 [16] = assay: Cell cycle arrest in human HepG2 cells assessed as accumulation at G2/M phase at 1.6 ug/mL after 48 hrs by propidium iodide staining-based flow cytometric analysis (reference value: 5%); assay type: functional
HepG2 [17] = assay: Induction of apoptosis in human HepG2 cells assessed as nuclear condensation at 4.8 ug/mL after 24 hrs by acridine orange/ethidium bromide staining-based fluorescence microscopic analysis; assay type: functional, cell-based
HepG2 [18] = assay: Cytotoxicity against human HepG2 cells assessed as cell viability after 24 hrs by MTT assay; assay type: functional, cell-based; conditions: HepG2, 24 h
HepG2 [19] = assay: Induction of apoptosis in human HepG2 cells assessed as increase in mitochondrial cytochrome c release after 24 hrs by Western blot analysis; assay type: functional, cell-based
HepG2 [20] = assay: Cell cycle arrest in human HepG2 cells assessed as accumulation at S phase at 6.4 ug/mL after 48 hrs by propidium iodide staining-based flow cytometric analysis (reference value: 31%); assay type: functional
HepG2 [21] = assay: Cytotoxicity against human HepG2 cells assessed as decrease in cell viability at 1.6 to 8 ug/mL by MTT assay; assay type: functional, cell-based; conditions: TDE = time-dependent effect
HepG2 [22] = assay: Induction of apoptosis in human HepG2 cells assessed as increase in early apoptotic cells after 24 hrs by annexin V-FITC/propidium iodide staining-based FACS flow cytometric analysis; assay type: functional, cell-based
HepG2 [23] = assay: Cell cycle arrest in human HepG2 cells assessed as accumulation at S phase at 1.6 ug/mL after 24 hrs by propidium iodide staining-based flow cytometric analysis (reference value: 46%); assay type: functional
HepG2 [24] = assay: Cell cycle arrest in human HepG2 cells assessed as accumulation at G1 phase at 1.6 ug/mL after 48 hrs by propidium iodide staining-based flow cytometric analysis (reference value: 64%); assay type: functional
HepG2 [25] = assay: Cell cycle arrest in human HepG2 cells assessed as accumulation at sub-G1 phase at 6.4 ug/mL after 48 hrs by propidium iodide staining-based flow cytometric analysis (reference value: 3%); assay type: functional
HepG2 [26] = assay: Cytotoxicity against human HepG2 cells assessed as cell viability after 48 hrs by MTT assay; assay type: functional, cell-based; conditions: HepG2, 48 h
HepG2 [27] = assay: Induction of apoptosis in human HepG2 cells assessed as increase in Bax level after 24 hrs by Western blot analysis; assay type: functional, cell-based
HepG2 [28] = assay: Cell cycle arrest in human HepG2 cells assessed as accumulation at G1 phase at 3.2 ug/mL after 48 hrs by propidium iodide staining-based flow cytometric analysis (reference value: 64%); assay type: functional
HepG2 [29] = assay: Cell cycle arrest in human HepG2 cells assessed as accumulation at S phase at 3.2 ug/mL after 48 hrs by propidium iodide staining-based flow cytometric analysis (reference value: 31%); assay type: functional
H22 = assay: Antitumor activity against mouse H22 cells allografted in Kunming mouse assessed as decrease in tumor size at 0.5 to 1 mg/kg/day, ip administered 8 days measured after 10 days; assay type: functional, organism-based

`COC1=CC(=O)c2c(O)cccc2C1=O` was tested, and the Activity (HepG2 [1]) was 46%, the Activity (HepG2 [2]) was “Active” and the Activity (HepG2 [3]) was 37%. It also gave an Activity (HepG2 [4]) of 1%, an Activity (HepG2 [5]) of 6% and an Activity (HepG2 [6]) of 2%. For the same molecule, the Activity (HepG2 [7]) was 34%, the Activity (HepG2 [8]) was 54% and the Activity (Mus musculus) was “Non-toxic”. For the same molecule, the Activity (HepG2 [9]) was 62%, the Activity (HepG2 [10]) was 2% and the Activity (HepG2 [11]) was 5%. The Activity (HepG2 [12]) was 2%, the Activity (HepG2 [13]) was 0% and the Activity (HepG2 [14]) was 59%. For the same molecule, the Activity (HepG2 [15]) was 6%, the Activity (HepG2 [16]) was 1% and the Activity (HepG2 [17]) was “Active”. For the same molecule, the IC50 (HepG2 [18]) was 3.8 µg/mL (≈ 18.6 µM), the Activity (HepG2 [19]) was “Dose-dependent effect” and the Activity (HepG2 [20]) was 52%. For the same molecule, the Activity (HepG2 [21]) was “tde”, the Activity (HepG2 [22]) was “Dose-dependent effect” and the Activity (HepG2 [23]) was 62%. It also gave an Activity (HepG2 [24]) of 50%, an Activity (HepG2 [25]) of 18% and an IC50 (HepG2 [26]) of 3.7 µg/mL (≈ 18.1 µM). The Activity (HepG2 [27]) was “Dose-dependent effect”, the Activity (HepG2 [28]) was 35% and the Activity (HepG2 [29]) was 64%. The Activity (H22) was “Active”.

— ChEMBL document CHEMBL2375211, “2-methoxyjuglone induces apoptosis in HepG2 human hepatocellular carcinoma cells and exhibits in vivo antitumor activity in a H22 mouse hepatocellular carcinoma model” (J Nat Prod, 2013)
